Source: patent publication US10420758B2, “Indolinyl-sulfonamide inhibitors of tankyrase and methods of use thereof” (The Board of Regents of the University of Texas System, priority 2015, dated 2019)

Columns and labels:
HeLa cells = experiment: Terminal restriction fragment (TRF) telomere length assay; type: cell-based, human; settings: up to 40 population doublings, FIGS. 6A-B
Protocol: FIGS. 6A-6C show Tnks inhibitors but not a Porcn inhibitor induce telomeric shortening. […] HeLa cells were incubated with IWR-1, IWR-8, or IWP-6 at various concentrations for the indicated number of population doublings (PD) and telomere length measured by terminal restriction fragment (TRF) analysis. Density of radioprobe hybridization relative to the vertical distance from the largest molecular weight marker was quantified using ImageJ and the point of highest density in each lane marked by a dark line. Position of control telomere restricted fragment signal is indicated with dotted line. Lanes with insufficient strength in labeling or that were disrupted with blemishes during experimental processing were not quantified. […] The same assay described in “A” was used to test the Porcn inhibitor IWP-2. (FIG. 6C) Model of Tnks-dependent regulation of Wnt/β-catenin transcriptional and telomere length maintenance in human cells. Excessive Terf1 binding to DNA in the absence of Tnks-mediated Terf1 parsylation results in replication fork stalling in telomeres (Munoz, et al., 2009; Ohki and Ishikawa, 2004) which then presumably results in telomere shortening. […]
1×10^6 cells were collected and washed with PBS. […] Gels were exposed to a Phosphorlmager screen overnight and analyzed using a Typhoon Phosphorlmager scanner system (Molecular Dynamics). […]

PARP2 = PARP2 (Homo sapiens, UniProt Q9UGN5); experiment: PARP profiling, parsylation of immobilized histone; type: biochemical
Protocol: (§1) Performed by BPS Bioscience Inc., San Diego by following the BPS PARP or TNKS assay kit protocols. The enzymatic reactions were conducted in duplicate at room temperature for 1 hr in a 96 well plate coated with histone substrate. […] of reaction buffer (Tris.HCl, pH 8.0) contains NAD^+, biotinylated NAD^+, activated DNA, recombinant PARP enzyme and 10 μM of the test compound. […] After enzymatic reactions, 50 μL of Streptavidin-horseradish peroxidase was added to each well and the plate was incubated at room temperature for an additional 30 min. 100 μL of developer reagents were added to wells and luminescence was measured using a BioTek Synergy™ 2 microplate reader.

PARP11 = PARP11 (Homo sapiens, UniProt Q9NR21); experiment: PARP profiling, parsylation of immobilized histone; type: biochemical; settings: IWR compounds 10 μM
Protocol: as §1

PARP15 = target: T1, PARP15 (Homo sapiens, UniProt Q460N3); experiment: PARP profiling, parsylation of immobilized histone; type: biochemical
T1 sequence (Q460N3 1-678): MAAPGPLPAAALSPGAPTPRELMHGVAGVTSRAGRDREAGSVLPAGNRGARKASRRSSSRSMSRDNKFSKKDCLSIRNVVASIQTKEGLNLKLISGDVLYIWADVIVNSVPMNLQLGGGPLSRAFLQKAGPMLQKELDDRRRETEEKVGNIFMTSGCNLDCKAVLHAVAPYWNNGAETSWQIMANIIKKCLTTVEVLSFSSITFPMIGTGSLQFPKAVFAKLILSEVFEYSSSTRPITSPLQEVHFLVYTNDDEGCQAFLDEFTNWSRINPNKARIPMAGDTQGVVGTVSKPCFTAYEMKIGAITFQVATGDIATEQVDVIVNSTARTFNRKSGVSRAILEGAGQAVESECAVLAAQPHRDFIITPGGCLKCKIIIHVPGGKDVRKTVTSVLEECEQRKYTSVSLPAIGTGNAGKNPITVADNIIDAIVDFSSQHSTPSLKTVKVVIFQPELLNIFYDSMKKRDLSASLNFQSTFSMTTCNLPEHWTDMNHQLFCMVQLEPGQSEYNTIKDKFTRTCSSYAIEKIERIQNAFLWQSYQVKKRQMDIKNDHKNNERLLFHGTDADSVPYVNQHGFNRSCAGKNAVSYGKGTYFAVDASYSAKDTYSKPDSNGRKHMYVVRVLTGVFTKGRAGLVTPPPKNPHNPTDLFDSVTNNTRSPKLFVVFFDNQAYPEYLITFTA
Protocol: as §1

PARP8 = target: T2, PARP8 (Homo sapiens, UniProt Q8N3A8); experiment: PARP profiling, parsylation of immobilized histone; type: biochemical
T2 sequence (Q8N3A8 1-854): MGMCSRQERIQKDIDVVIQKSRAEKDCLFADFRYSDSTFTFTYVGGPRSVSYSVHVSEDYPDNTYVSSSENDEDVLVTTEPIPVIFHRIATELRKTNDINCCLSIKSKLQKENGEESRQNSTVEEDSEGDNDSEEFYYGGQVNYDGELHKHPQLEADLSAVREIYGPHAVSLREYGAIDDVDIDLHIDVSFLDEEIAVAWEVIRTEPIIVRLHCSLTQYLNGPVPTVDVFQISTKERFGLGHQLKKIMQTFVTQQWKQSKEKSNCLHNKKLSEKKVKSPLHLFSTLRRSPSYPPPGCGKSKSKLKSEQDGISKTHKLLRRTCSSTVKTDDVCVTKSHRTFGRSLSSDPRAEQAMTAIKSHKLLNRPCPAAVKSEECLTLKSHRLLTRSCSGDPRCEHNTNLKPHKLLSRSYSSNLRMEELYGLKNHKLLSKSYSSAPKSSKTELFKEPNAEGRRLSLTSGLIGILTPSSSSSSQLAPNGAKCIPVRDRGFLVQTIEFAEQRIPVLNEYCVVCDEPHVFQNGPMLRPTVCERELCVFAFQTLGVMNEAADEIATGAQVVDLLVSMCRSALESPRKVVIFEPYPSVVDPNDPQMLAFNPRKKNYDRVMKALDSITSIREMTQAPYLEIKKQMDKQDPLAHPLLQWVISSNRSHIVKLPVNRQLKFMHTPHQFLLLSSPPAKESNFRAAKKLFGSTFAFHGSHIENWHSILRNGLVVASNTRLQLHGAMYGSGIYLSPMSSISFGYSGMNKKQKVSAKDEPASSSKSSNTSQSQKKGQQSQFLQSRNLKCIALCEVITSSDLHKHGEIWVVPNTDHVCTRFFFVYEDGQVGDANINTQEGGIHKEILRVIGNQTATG
Protocol: as §1

PARP2, sequence (Q9UGN5 whole entry): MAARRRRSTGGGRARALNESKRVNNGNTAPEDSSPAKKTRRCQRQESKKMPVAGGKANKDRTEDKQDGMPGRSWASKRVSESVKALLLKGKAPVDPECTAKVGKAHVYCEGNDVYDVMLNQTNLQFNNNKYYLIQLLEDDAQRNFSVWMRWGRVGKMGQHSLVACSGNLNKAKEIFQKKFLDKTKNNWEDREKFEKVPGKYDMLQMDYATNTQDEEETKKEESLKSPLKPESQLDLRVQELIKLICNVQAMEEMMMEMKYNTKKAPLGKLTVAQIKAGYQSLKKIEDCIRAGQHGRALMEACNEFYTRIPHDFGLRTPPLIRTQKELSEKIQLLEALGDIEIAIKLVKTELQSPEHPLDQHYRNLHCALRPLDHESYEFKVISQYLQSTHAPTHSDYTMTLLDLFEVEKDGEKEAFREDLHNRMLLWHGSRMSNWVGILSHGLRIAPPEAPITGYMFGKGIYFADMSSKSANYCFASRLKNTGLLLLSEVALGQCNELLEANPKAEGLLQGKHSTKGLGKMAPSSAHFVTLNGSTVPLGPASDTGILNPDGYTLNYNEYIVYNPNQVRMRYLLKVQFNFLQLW
PARP11, sequence (Q9NR21 whole entry): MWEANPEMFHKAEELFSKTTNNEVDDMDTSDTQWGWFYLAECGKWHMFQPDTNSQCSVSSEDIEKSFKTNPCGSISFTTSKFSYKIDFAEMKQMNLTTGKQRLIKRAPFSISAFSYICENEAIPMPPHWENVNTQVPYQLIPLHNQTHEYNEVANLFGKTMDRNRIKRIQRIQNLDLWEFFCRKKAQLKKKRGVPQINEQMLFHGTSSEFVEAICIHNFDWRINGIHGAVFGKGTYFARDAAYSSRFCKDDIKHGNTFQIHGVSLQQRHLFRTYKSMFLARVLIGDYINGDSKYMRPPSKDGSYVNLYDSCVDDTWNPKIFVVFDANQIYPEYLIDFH

SMILES | telomere length (HeLa cells) | % inhibition (PARP2; IWR compounds 10 μM) | % inhibition (PARP11) | % inhibition (PARP15; IWR compounds 10 μM) | % inhibition (PARP8; IWR compounds 10 μM) | inhibition at 10 µM (PARP2; IWR compounds 10 μM) | inhibition at 10 µM (PARP11) | inhibition at 10 µM (PARP15; IWR compounds 10 μM) | inhibition at 10 µM (PARP8; IWR compounds 10 μM) | inhibition at 0.02 µM (PARP2) | inhibition at 0.02 µM (PARP15) | inhibition at 0.02 µM (PARP8)
O=C(Nc1cccc2cccnc12)c1ccc(N2C(=O)[C@@H]3[C@H](C2=O)[C@@H]2C=C[C@H]3C2)cc1 [IWR-1] | induced shortened telomere length in a dose-dependent manner | 5% | 2% | 0% | 1% |  |  |  |  |  |  | 
CCN(C(=O)C1CCN(S(=O)(=O)c2cc3c(cc2Br)CCN3C(C)=O)CC1)c1cccc(C)c1 [IWR-8] | induced shortened telomere length in a dose-dependent manner |  |  |  |  | 3% | 12% | 0% | 0% |  |  | 
O=C(c1cc(Cc2n[nH]c(=O)c3ccccc23)ccc1F)N1CCN(C(=O)C2CC2)CC1 [Olaparib] |  |  |  |  |  |  |  |  |  | 100% | 82% | 96%
